Values of other authors as cited in patent publication US20100280071A1, “BENZIMIDAZOLES WHICH HAVE ACTIVITY AT M1 RECEPTOR AND THEIR USES IN MEDICINE” (priority 2006, published 2010).

Legend:
[1] = system: unilateral 6-OH-DA lesioned rats
[2] = system: A10 and A9 dopamine cells; details: A10 versus A9 cells
[3] = in vivo
c-fos expression = details: prefrontal cortex, nucleus accumbens, striatum; rats

CCCCCCOc1nsnc1C1=CCCN(C)C1 [xanomeline]
effect on amphetamine induced locomotion (rats): reverses
effect on apomorphine induced climbing (mice): reverses
effect on dopamine agonist driven turning [1]: reverses
EPS liability (monkeys): without EPS liability
effect on amphetamine-induced motor unrest (monkeys): reverses
dopamine cell firing [2]: inhibit A10, but not A9
conditioned avoidance [3]: inhibit
c-fos expression (c-fos expression): induces c-fos expression in prefrontal cortex and nucleus accumbens, but not in striatum
psychotic symptoms such as suspiciousness, hallucinations and delusions (Alzheimer's patients; Alzheimer's patients): reduce psychotic symptoms
side effects (Alzheimer's patients; attributed to relatively non-selective nature of the compound): dose-limiting peripheral cholinergic side effects
